Target: P. falciparum apicoplast DNA polymerase (Pf-apPOL) (Plasmodium falciparum, UniProt Q8ILY1)
Test: Fluorescence-based high-throughput DNA polymerase assay (molecular beacon), primary screen and dose-response
Type: biochemical
Conditions: for DNA Pol: unit not given, 90 min, 10 µM; for % inhibition Apo pol 10' 2.5 / % inhibition Apo pol 10' 5 / % inhibition Apo pol 10' 10 / % inhibition Apo pol 10' 20 / % inhibition Apo pol 10' 40 / % inhibition Apo pol 10' 80: read at 10'; for % inhibition Apol 90' 2.5 / % inhibition Apol 90' 5 / % inhibition Apol 90' 10 / % inhibition Apol 90' 20 / % inhibition Apol 90' 40 / % inhibition Apol 90' 80 / % inhibition ApPOL 90' 2.5 / % inhibition ApPOL 90' 5 / % inhibition ApPOL 90' 10 / % inhibition ApPOL 90' 20 / % inhibition ApPOL 90' 40 / % inhibition ApPOL 90' 80: read at 90'; for % inhibition apPOL 180' 2.5 / % inhibition apPOL 180' 5 / % inhibition apPOL 180' 10 / % inhibition apPOL 180' 20 / % inhibition apPOL 180' 40 / % inhibition apPOL 180' 80: read at 180'; for % inhibition Apo pol 5' 2.5 / % inhibition Apo pol 5' 5 / % inhibition Apo pol 5' 10 / % inhibition Apo pol 5' 20 / % inhibition Apo pol 5' 40 / % inhibition Apo pol 5' 80: read at 5'; for % inhibition Apol 40' 2.5 / % inhibition Apol 40' 5 / % inhibition Apol 40' 10 / % inhibition Apol 40' 20 / % inhibition Apol 40' 40 / % inhibition Apol 40' 80: read at 40'
In short: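 Single-point screening used 10 µM compound with 20 nM polymerase, 20 nM hairpin substrate and 6 µM dNTPs for 90 min at 25 °C. Confirmatory titrations (2.5–80 µM) followed fluorescence at three times, and IC50 was derived from a fit including a cooperativity term n.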

[1] = 186 hits, DNA Pol (screen value)
[2] = first dose-response, concentration 40
[3] = first dose-response, concentration 10
[4] = first dose-response, concentration 20

Sequence of P. falciparum apicoplast DNA polymerase (Pf-apPOL) (Q8ILY1 entry or part of it): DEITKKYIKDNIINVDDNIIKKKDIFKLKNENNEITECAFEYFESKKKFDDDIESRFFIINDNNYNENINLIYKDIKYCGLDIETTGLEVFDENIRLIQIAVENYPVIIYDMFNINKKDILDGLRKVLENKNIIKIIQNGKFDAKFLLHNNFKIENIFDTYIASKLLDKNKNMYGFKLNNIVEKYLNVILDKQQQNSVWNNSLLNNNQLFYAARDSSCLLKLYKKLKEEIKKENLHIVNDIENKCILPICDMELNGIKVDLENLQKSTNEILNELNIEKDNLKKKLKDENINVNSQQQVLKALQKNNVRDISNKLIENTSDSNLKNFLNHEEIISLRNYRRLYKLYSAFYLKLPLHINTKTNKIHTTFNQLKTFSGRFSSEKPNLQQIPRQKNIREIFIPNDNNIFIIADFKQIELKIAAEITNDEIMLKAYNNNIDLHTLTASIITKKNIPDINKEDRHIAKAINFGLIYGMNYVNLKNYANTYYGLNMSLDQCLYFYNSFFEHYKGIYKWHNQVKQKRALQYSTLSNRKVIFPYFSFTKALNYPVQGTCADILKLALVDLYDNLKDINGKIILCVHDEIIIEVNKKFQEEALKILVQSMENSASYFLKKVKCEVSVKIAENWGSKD

## Cn1nc(-c2nc(-c3ccccc3)no2)c2c1CCN(C(=O)Cc1cccs1)C2 [Molecule 58, O=C(N1CCc2c(C1)c(nn2C)c1onc(n1)c1ccccc1)Cc1cccs1]
[1]
  DNA Pol: 38
'DNA Pol' (screen value)
  DNA Pol: 38
DRC-1, concentration 2.5
  % inhibition Apo pol 10' 2.5: 10%
  % inhibition Apol 90' 2.5: -0.451%
  % inhibition apPOL 180' 2.5: -6%
DRC-1, concentration 5
  % inhibition Apo pol 10' 5: 10%
  % inhibition Apol 90' 5: 2.41%
  % inhibition apPOL 180' 5: -3.68%
DRC-1, concentration 10
  % inhibition Apo pol 10' 10: 35%
  % inhibition Apol 90' 10: 21%
  % inhibition apPOL 180' 10: 9%
DRC-1, concentration 20
  % inhibition Apo pol 10' 20: 48%
  % inhibition Apol 90' 20: 37%
  % inhibition apPOL 180' 20: 21%
DRC-1, concentration 40
  % inhibition Apo pol 10' 40: 65%
  % inhibition Apol 90' 40: 58%
  % inhibition apPOL 180' 40: 45%
DRC-1, concentration 80
  % inhibition Apo pol 10' 80: 65%
  % inhibition Apol 90' 80: 67%
  % inhibition apPOL 180' 80: 62%
DRC-2, concentration 5
  % inhibition Apo pol 5': 10%
  % inhibition Apo pol 5' 5: 10%
  % inhibition Apol 40' 5: 13%
  % inhibition ApPOL 90' 5: 11%
  % inhibition apPOL 180' 5: 6%
DRC-2, concentration 2.5
  % inhibition Apol 40': 9%
  % inhibition Apo pol 5' 2.5: 7.55%
  % inhibition Apol 40' 2.5: 9%
  % inhibition ApPOL 90' 2.5: 7.37%
  % inhibition apPOL 180' 2.5: 3.22%
DRC-2, concentration 40
  % inhibition ApPOL 90': 54%
  % inhibition Apo pol 5' 40: 28%
  % inhibition Apol 40' 40: 51%
  % inhibition ApPOL 90' 40: 54%
  % inhibition apPOL 180' 40: 52%
DRC-2, concentration 80
  % inhibition ApPOL 90': 54%
  % inhibition Apo pol 5' 80: 16%
  % inhibition Apol 40' 80: 47%
  % inhibition ApPOL 90' 80: 54%
  % inhibition apPOL 180' 80: 56%
DRC-2, concentration 10
  % inhibition Apo pol 5' 10: 18%
  % inhibition Apol 40' 10: 24%
  % inhibition ApPOL 90' 10: 23%
  % inhibition apPOL 180' 10: 15%
DRC-2, concentration 20
  % inhibition Apo pol 5' 20: 27%
  % inhibition Apol 40' 20: 39%
  % inhibition ApPOL 90' 20: 40%
  % inhibition apPOL 180' 20: 31%
First dose-response, concentration 2.5
  % inhibition Apo pol 10': 10%
First dose-response, concentration 5
  % inhibition Apo pol 10': 10%
[2]
  % inhibition Apo pol 10': 65%
First dose-response, concentration 80
  % inhibition Apo pol 10': 65%
[3]
  % inhibition Apol 90': 21%
  % inhibition apPOL 180': 9%
[4]
  % inhibition apPOL 180': 21%

## Cn1nc(-c2nnc(-c3ccccc3F)o2)c2c1CCN(C(=O)c1ccccc1Cl)C2 [Molecule 34, Cn1nc(c2c1CCN(C2)C(=O)c1ccccc1Cl)c1nnc(o1)c1ccccc1F]
[1]
  DNA Pol: 48
'DNA Pol' (screen value)
  DNA Pol: 48
DRC-1, concentration 2.5
  % inhibition Apo pol 10' 2.5: 33%
  % inhibition Apol 90' 2.5: 23%
  % inhibition apPOL 180' 2.5: 17%
DRC-1, concentration 5
  % inhibition Apo pol 10' 5: 44%
  % inhibition Apol 90' 5: 35%
  % inhibition apPOL 180' 5: 28%
DRC-1, concentration 10
  % inhibition Apo pol 10' 10: 52%
  % inhibition Apol 90' 10: 46%
  % inhibition apPOL 180' 10: 41%
DRC-1, concentration 20
  % inhibition Apo pol 10' 20: 58%
  % inhibition Apol 90' 20: 54%
  % inhibition apPOL 180' 20: 50%
DRC-1, concentration 40
  % inhibition Apo pol 10' 40: 59%
  % inhibition Apol 90' 40: 59%
  % inhibition apPOL 180' 40: 58%
DRC-1, concentration 80
  % inhibition Apo pol 10' 80: 63%
  % inhibition Apol 90' 80: 65%
  % inhibition apPOL 180' 80: 64%
DRC-2, concentration 2.5
  % inhibition Apo pol 5': 20%
  % inhibition Apol 40': 22%
  % inhibition ApPOL 90': 22%
  % inhibition Apo pol 5' 2.5: 20%
  % inhibition Apol 40' 2.5: 22%
  % inhibition ApPOL 90' 2.5: 22%
  % inhibition apPOL 180' 2.5: 15%
DRC-2, concentration 5
  % inhibition Apo pol 5': 20%
  % inhibition Apol 40': 27%
  % inhibition ApPOL 90': 27%
  % inhibition Apo pol 5' 5: 20%
  % inhibition Apol 40' 5: 27%
  % inhibition ApPOL 90' 5: 27%
  % inhibition apPOL 180' 5: 21%
DRC-2, concentration 80
  % inhibition Apo pol 5': 39%
  % inhibition Apol 40': 52%
  % inhibition apPOL 180': 52%
  % inhibition Apo pol 5' 80: 39%
  % inhibition Apol 40' 80: 52%
  % inhibition ApPOL 90' 80: 55%
  % inhibition apPOL 180' 80: 52%
DRC-2, concentration 40
  % inhibition Apol 40': 49%
  % inhibition ApPOL 90': 52%
  % inhibition apPOL 180': 49%
  % inhibition Apo pol 5' 40: 38%
  % inhibition Apol 40' 40: 49%
  % inhibition ApPOL 90' 40: 52%
  % inhibition apPOL 180' 40: 49%
DRC-2, concentration 20
  % inhibition apPOL 180': 39%
  % inhibition Apo pol 5' 20: 29%
  % inhibition Apol 40' 20: 40%
  % inhibition ApPOL 90' 20: 43%
  % inhibition apPOL 180' 20: 39%
DRC-2, concentration 10
  % inhibition Apo pol 5' 10: 24%
  % inhibition Apol 40' 10: 34%
  % inhibition ApPOL 90' 10: 36%
  % inhibition apPOL 180' 10: 31%
[3]
  % inhibition Apo pol 10': 52%
[4]
  % inhibition Apo pol 10': 58%
[2]
  % inhibition Apo pol 10': 59%
  % inhibition Apol 90': 59%
  % inhibition apPOL 180': 58%

Source: PMC9090415, “Discovery of small molecule inhibitors of Plasmodium falciparum apicoplast DNA polymerase” (Journal of Enzyme Inhibition and Medicinal Chemistry, 2022)
